The values that follow come from US9611278B2 (Merck Sharp & Dohme Corp., priority 2013, dated 2017).

Molecules are shown by their SMILES.

The target in the test is T1, sGC α1/β1 heterodimer stably expressed in CHO-K1 cells (CHO-K1/sGC) (Homo sapiens, UniProt Q02108+Q02153).
T1 construct: expressed in transfected cells
T1 sequence (Q02108 1-690): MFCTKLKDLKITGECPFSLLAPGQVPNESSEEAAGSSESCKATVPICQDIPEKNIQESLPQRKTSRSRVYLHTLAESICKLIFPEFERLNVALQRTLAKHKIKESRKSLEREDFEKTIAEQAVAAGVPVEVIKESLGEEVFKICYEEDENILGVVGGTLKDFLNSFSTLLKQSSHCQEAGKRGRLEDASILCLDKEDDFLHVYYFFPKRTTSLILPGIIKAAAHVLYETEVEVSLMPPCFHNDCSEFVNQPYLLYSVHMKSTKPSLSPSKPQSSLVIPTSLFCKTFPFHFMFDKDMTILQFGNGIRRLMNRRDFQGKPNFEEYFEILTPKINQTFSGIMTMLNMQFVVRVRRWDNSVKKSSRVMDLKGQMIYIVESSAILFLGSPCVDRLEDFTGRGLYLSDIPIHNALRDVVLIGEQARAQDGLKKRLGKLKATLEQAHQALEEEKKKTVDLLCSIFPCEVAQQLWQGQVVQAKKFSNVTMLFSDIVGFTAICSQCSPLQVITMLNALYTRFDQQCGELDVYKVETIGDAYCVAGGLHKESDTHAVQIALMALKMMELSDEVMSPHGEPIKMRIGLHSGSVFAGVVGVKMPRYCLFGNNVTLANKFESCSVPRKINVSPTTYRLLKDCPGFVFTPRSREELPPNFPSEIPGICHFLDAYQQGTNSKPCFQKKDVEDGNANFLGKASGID
T1 sequence (Q02153 1-619): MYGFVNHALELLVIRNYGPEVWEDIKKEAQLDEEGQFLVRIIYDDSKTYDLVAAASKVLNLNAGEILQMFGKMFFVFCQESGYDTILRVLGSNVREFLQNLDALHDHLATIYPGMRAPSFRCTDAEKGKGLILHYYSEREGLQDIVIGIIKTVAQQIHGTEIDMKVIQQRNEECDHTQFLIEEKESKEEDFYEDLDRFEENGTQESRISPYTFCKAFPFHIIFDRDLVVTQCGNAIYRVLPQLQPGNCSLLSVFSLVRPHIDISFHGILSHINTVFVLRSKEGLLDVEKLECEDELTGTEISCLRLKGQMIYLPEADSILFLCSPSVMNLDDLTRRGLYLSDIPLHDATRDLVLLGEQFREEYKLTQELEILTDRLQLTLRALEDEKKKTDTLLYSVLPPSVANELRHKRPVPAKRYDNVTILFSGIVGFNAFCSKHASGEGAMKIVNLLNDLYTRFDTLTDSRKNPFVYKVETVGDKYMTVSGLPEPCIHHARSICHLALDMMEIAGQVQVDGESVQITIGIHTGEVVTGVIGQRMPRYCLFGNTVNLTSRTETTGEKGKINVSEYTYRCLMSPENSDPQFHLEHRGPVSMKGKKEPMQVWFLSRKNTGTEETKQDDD
As to the kind of experiment: Cell-based sGC Functional Assay (CASA Assay). As to conditions: for Emax: CHO-K1, activation as percentage of maximum cGMP production of Compound A (set to 100%), read-out: % Act.; for EC50: inflection point of cGMP generation in CHO-K1/sGC cells, 4P fit, 1 hr at 37° C., read-out: IP. A digest of the protocol:
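CHO-K1 cells stably expressing human sGC α1/β1 were incubated with compound for 1 h at 37 °C in buffer with 0.5 mM IBMX and 2.5% DMSO, with or without 1 μM DETA-NO. Intracellular cGMP was read by HTRF and expressed as percentage of maximal activation by reference activator Compound A. Values came from a 4-parameter fit.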

For the compound `Cn1ncc2c(-c3nc(N)c4c(n3)NC(=O)C4(C)c3ccc(F)cn3)nc(CCC3CC(F)(F)C3)nc21` (centres unmarked) [Example 29, 4-Amino-2-(6-(2-(3,3-difluorocyclobutyl)ethyl)-1-methyl-1H-pyrazolo[3,4-d]pyrimidin-4-yl)-5-(5-fluoropyridin-2-yl)-5-methyl-5,7-dihydro-6H-pyrrolo[2,3-d]pyrimidin-6-one], the Emax amounted to 121% and the EC50 worked out at 230 nM.
For the compound `Cn1ncc2c(-c3nc(N)c4c(n3)NC(=O)C4(C)c3ccc(F)cn3)nc(CCC3CCC3)nc21` (centres unmarked) [Example 30, 4-Amino-2-(6-(2-cyclobutylethyl)-1-methyl-1H-pyrazolo[3,4-d]pyrimidin-4-yl)-5-(5-fluoropyridin-2-yl)-5-methyl-5,7-dihydro-6H-pyrrolo[2,3-d]pyrimidin-6-one], the Emax amounted to 98% and the EC50 amounted to 35 nM.
As to `Cn1ncc2c(-c3nc(N)c4c(n3)NC(=O)C4(c3ccc(Cl)cn3)C3CC3)nc(CC3CC(F)(F)C3)nc21` (centres unmarked) [Example 31, 4-Amino-5-(5-chloropyridin-2-yl)-5-cyclopropyl-2-(6-((3,3-difluorocyclobutyl)methyl)-1-methyl-1H-pyrazolo[3,4-d]pyrimidin-4-yl)-5,7-dihydro-6H-pyrrolo[2,3-d]pyrimidin-6-one], the Emax is 169% and the EC50 stood at 44 nM.
Taken in the same sequence, the figures for `Cn1ncc2c(-c3nc(N)c4c(n3)NC(=O)C4(c3ccc(C(F)(F)F)cn3)C3CC3)nc(CC3CC(F)(F)C3)nc21` (centres unmarked) [Example 32, 4-Amino-5-cyclopropyl-2-(6-((3,3-difluorocyclobutyl)methyl)-1-methyl-1H-pyrazolo[3,4-d]pyrimidin-4-yl)-5-(5-(trifluoromethyl)pyridin-2-yl)-5,7-dihydro-6H-pyrrolo[2,3-d]pyrimidin-6-one] were 113% and 59 nM.
`COc1ccc(C2(C)C(=O)Nc3nc(-c4nc(CC5CC(F)(F)C5)nc5c4cnn5C)nc(N)c32)nc1` (centres unmarked) [Example 33, 4-Amino-2-(6-((3,3-difluorocyclobutyl)methyl)-1-methyl-1H-pyrazolo[3,4-d]pyrimidin-4-yl)-5-(5-methoxypyridin-2-yl)-5-methyl-5,7-dihydro-6H-pyrrolo[2,3-d]pyrimidin-6-one]: the Emax worked out at 104% and the EC50 stood at 32 nM.
As for `CCCCc1nc(-c2nc(N)c3c(n2)NC(=O)C3(C)c2ccc(F)cn2)c2cnn(C)c2n1` (centres unmarked) [Example 34, 4-Amino-2-(6-butyl-1-methyl-1H-pyrazolo[3,4-d]pyrimidin-4-yl)-5-(5-fluoropyridin-2-yl)-5-methyl-5,7-dihydro-6H-pyrrolo[2,3-d]pyrimidin-6-one], the Emax worked out at 109% and the EC50 stood at 44 nM.
In the case of `CCCCc1nc(-c2nc(N)c3c(n2)NC(=O)C3(C)c2ccc(C(C)C)cn2)c2cnn(C)c2n1` (centres unmarked) [Example 35, 4-Amino-2-(6-butyl-1-methyl-1H-pyrazolo[3,4-d]pyrimidin-4-yl)-5-(5-isopropylpyridin-2-yl)-5-methyl-5,7-dihydro-6H-pyrrolo[2,3-d]pyrimidin-6-one], the Emax amounted to 88% and the EC50 was 96 nM.
On to `Cn1ncc2c(-c3nc(N)c4c(n3)NC(=O)C4(C)c3ccc(Cl)cn3)nc(CC3CC(F)(F)C3)nc21` (centres unmarked) [Example 37, 4-Amino-5-(5-chloropyridin-2-yl)-2-(6-((3,3-difluorocyclobutyl)methyl)-1-methyl-1H-pyrazolo[3,4-d]pyrimidin-4-yl)-5-methyl-5,7-dihydro-6H-pyrrolo[2,3-d]pyrimidin-6-one], for which the Emax amounted to 192% and the EC50 was determined as 41 nM.
For the compound `[2H]C([2H])([2H])n1ncc2c(-c3nc(N)c4c(n3)NC(=O)C4(C)c3nnc(C4CC4)o3)nc(CCC(F)(F)C(F)(F)F)nc21` (centres unmarked) [Example 39, 4-Amino-5-(5-cyclopropyl-1,3,4-oxadiazol-2-yl)-5-methyl-2-(1-(methyl-d3)-6-(3,3,4,4,4-pentafluorobutyl)-1H-pyrazolo[3,4-d]pyrimidin-4-yl)-5,7-dihydro-6H-pyrrolo[2,3-d]pyrimidin-6-one], the Emax is 115% and the EC50 came out at 150 nM.
On to `[2H]C([2H])([2H])n1ncc2c(-c3nc(N)c4c(n3)NC(=O)C4(CC)c3nnc(C4CC4)o3)nc(CCC(F)(F)C(F)(F)F)nc21` (centres unmarked) [Example 42, 4-Amino-5-(5-cyclopropyl-1,3,4-oxadiazol-2-yl)-5-ethyl-2-(1-(methyl-d3)-6-(3,3,4,4,4-pentafluorobutyl)-1H-pyrazolo[3,4-d]pyrimidin-4-yl)-5,7-dihydro-6H-pyrrolo[2,3-d]pyrimidin-6-one], for which the Emax stood at 120% and the EC50 was 887 nM.
For `[2H]C([2H])([2H])n1ncc2c(-c3nc(N)c4c(n3)NC(=O)C4(c3nnc(C4CC4)o3)C3CC3)nc(CCCC(F)(F)F)nc21` (centres unmarked) [Example 43, 4-Amino-5-cyclopropyl-5-(5-cyclopropyl-1,3,4-oxadiazol-2-yl)-2-(1-(methyl-d3)-6-(4,4,4-trifluorobutyl)-1H-pyrazolo[3,4-d]pyrimidin-4-yl)-5,7-dihydro-6H-pyrrolo[2,3-d]pyrimidin-6-one], the Emax stood at 143% and the EC50 was 825 nM.
Turning to `CCn1ncc2c(-c3nc(N)c4c(n3)NC(=O)C4(c3nnc(C4CC4)o3)C3CC3)nc(CCC(F)(F)C(F)(F)F)nc21` (centres unmarked) [Example 45, 4-Amino-5-cyclopropyl-5-(5-cyclopropyl-1,3,4-oxadiazol-2-yl)-2-(1-ethyl-6-(3,3,4,4,4-pentafluorobutyl)-1H-pyrazolo[3,4-d]pyrimidin-4-yl)-5,7-dihydro-6H-pyrrolo[2,3-d]pyrimidin-6-one], the Emax was found to be 101% and the EC50 came to 738 nM.
With `[2H]C([2H])([2H])n1ncc2c(-c3nc(N)c4c(n3)NC(=O)C4(c3nnc(C4CCC4)o3)C3CC3)nc(CCC(F)(F)C(F)(F)F)nc21` (centres unmarked) [Example 46, 4-Amino-5-(5-cyclobutyl-1,3,4-oxadiazol-2-yl)-5-cyclopropyl-2-(1-(methyl-d3)-6-(3,3,4,4,4-pentafluorobutyl)-1H-pyrazolo[3,4-d]pyrimidin-4-yl)-5,7-dihydro-6H-pyrrolo[2,3-d]pyrimidin-6-one], the Emax was 97% and the EC50 is 258 nM.
Regarding `[2H]C([2H])([2H])n1ncc2c(-c3nc(N)c4c(n3)NC(=O)C4(c3nnc(C4CC4)o3)C3CC3)nc(CCC(F)(F)F)nc21` (centres unmarked) [Example 47, 4-Amino-5-cyclopropyl-5-(5-cyclopropyl-1,3,4-oxadiazol-2-yl)-2-(1-(methyl-d3)-6-(3,3,3-trifluoropropyl)-1H-pyrazolo[3,4-d]pyrimidin-4-yl)-5,7-dihydro-6H-pyrrolo[2,3-d]pyrimidin-6-one], the Emax was 108% and the EC50 was 2080 nM.
Consider `Cn1ncc2c(-c3nc(N)c4c(n3)NC(=O)C4(c3nnc(C4(C)CC4)o3)C3CC3)nc(CCC(F)(F)C(F)(F)F)nc21` (centres unmarked) [Example 48, 4-Amino-5-cyclopropyl-2-(1-methyl-6-(3,3,4,4,4-pentafluorobutyl)-1H-pyrazolo[3,4-d]pyrimidin-4-yl)-5-(5-(1-methylcyclopropyl)-1,3,4-oxadiazol-2-yl)-5,7-dihydro-6H-pyrrolo[2,3-d]pyrimidin-6-one], for which the Emax stood at 112% and the EC50 was determined as 399 nM.
As for `CC(C)c1nnc(C2(C3CC3)C(=O)Nc3nc(-c4nc(CCC(F)(F)C(F)(F)F)nc5c4cnn5C)nc(N)c32)o1` (centres unmarked) [Example 49, 4-Amino-5-cyclopropyl-5-(5-isopropyl-1,3,4-oxadiazol-2-yl)-2-(1-methyl-6-(3,3,4,4,4-pentafluorobutyl)-1H-pyrazolo[3,4-d]pyrimidin-4-yl)-5,7-dihydro-6H-pyrrolo[2,3-d]pyrimidin-6-one], the Emax was determined as 113% and the EC50 worked out at 149 nM.
